Test results: US20210077500A1, “PIKFYVE INHIBITORS FOR CANCER THERAPY” (Al Therapeutics, Inc., priority 2019, published 2021)
pIC50: −log10 of the molar value. Read-outs that look alike come from different tables or passages of the source. Blank lines part the entries; values can stand above or below the compound they belong to.

How the values were obtained:
EBC-1 = experiment: 5-day viability assay, single agent and combination (Chou-Talalay CI); settings: Homo sapiens, EBC-1, 120 h
Method: (§1) For assessment of synergistic activity, cells of each cell line were seeded at optimal density for growth onto different 96-well plates and placed into a humidified incubator (37° C., 5% CO2) to adhere overnight. The following day, the cells on each plate were treated either with a single agent (a PIKfyve inhibitor, e.g., apilimod, or a RAS pathway inhibitor) or with a combination of the two agents. Cells were treated for 120 hours and then assayed for cell viability using CellTiter-Glo™ (Promega).
(§2) Using this method, a CI value is calculated based on the effects of each drug alone on cell viability (single agent treatment) and the effects of each drug combination, across all combinations of both agents tested. The single agent treatments consisted of 8 different concentrations of each single agent, obtained by serial dilution. The concentrations were chosen to provide a range above and below the IC50 value of the single agent (if achieved) in a given cell line.
(§3) D1 alone and D2 alone were estimated from Hill's equation:
(§4) Here, we utilized cells harboring MET pathway activation, particularly the EBC-1, MKN45 and Caki-1 cell lines. In addition to MET inhibitors, since MET activates the RAS pathway, we also assayed for synergistic activity with inhibitors of the RAS pathway in these cells.

MKN45 = experiment: as above; settings: Homo sapiens, MKN-45, 120 h
Method: as §1, §2, §3, §4

GP5d = experiment: CellTiter-Glo cell viability, single agent and combination (Chou-Talalay CI); format: cell-based; settings: Homo sapiens, 120 h, GP5d (colorectal, KRAS G12D), average of two independent experiments
Method: as §1, §2, §3

LS411N = experiment: as above; format: cell-based; settings: 120 h, LS411N (colorectal, BRAF V600E), average of two independent experiments
Method: as §1, §2, §3

HT-29 = experiment: as above; format: cell-based; settings: Homo sapiens, HT-29, 120 h, HT-29 (colorectal, BRAF V600E), average of two independent experiments
Method: as §1, §2, §3

Caki-1 = experiment: 5-day viability assay, single agent and combination (Chou-Talalay CI); settings: Homo sapiens, CAKI-1, 120 h
Method: as §1, §2, §3, §4

A549 = experiment: CellTiter-Glo cell viability, single agent and combination (Chou-Talalay CI); settings: Homo sapiens, A549, 120 h, read-out: IC50 (single agent)
Method: (§5) For assessment of synergistic activity, cells of each cell line were seeded at optimal density for growth onto different 96-well plates and placed into a humidified incubator (37° C., 5% CO2) to adhere overnight. […] Cells were treated for 120 hours and then assayed for cell viability using CellTiter-Glo™ (Promega).
as §2

NCI-H1792 = experiment: as above; settings: Homo sapiens, NCI-H1792, 120 h, read-out: IC50 (single agent)
Method: as §5, §2

RKO cells = experiment: as above; settings: Homo sapiens; for pIC50: 120 h, read-out: IC50 (single agent), RKO (colorectal, BRAF V600E), 120 h, average of two independent experiments
Method: as §1, §2
In each experiment for a given cell line, the combination treatments consisted of 8×8 or 64 different combination treatments.
Using this method, combinations with CI values>1 are considered antagonistic, CI values=1 are considered additive, and CI values<1 are considered synergistic.

A375 = experiment: as above; settings: Homo sapiens, A-375, 120 h, read-out: IC50 (single agent)
Method: as §5, §2

HCT-15 = experiment: as above; format: cell-based; settings: Homo sapiens, HCT-15, 120 h, HCT-15 (colorectal, KRAS G13D), average of two independent experiments
Method: as §1, §2, §3

BxPC3 = experiment: CellTiter-Glo cell viability, single agent; format: cell-based; settings: Homo sapiens, BXPC-3; BxPC3 (pancreatic, BRAF delV487-P492); 120 h; average of two independent experiments
Method: The cell lines used in this study were derived from lung cancers, colorectal cancers, pancreatic cancer and melanoma, as shown in Table 2 below.
as §5

NCI-H820 = experiment: 5-day viability assay; format: cell-based; settings: 120 h, NCI-H820 (NSCLC, MET AMP), two independent experiments
SBC-5 = experiment: 5-day viability assay; format: cell-based; settings: Homo sapiens, 120 h, SBC-5 (SCLC, MET AMP), two independent experiments
NCI-H596 = experiment: 5-day viability assay; format: cell-based; settings: Homo sapiens, 120 h, NCI-H596 (NSCLC, MET Exon 14), two independent experiments
NCI-H1993 = experiment: 5-day viability assay; format: cell-based; settings: Homo sapiens, 120 h, NCI-H1993 (NSCLC, MET AMP), two independent experiments
NCI-H2023 = experiment: 5-day viability assay; format: cell-based; settings: 120 h, NCI-H2023 (NSCLC, Autocrine), two independent experiments
Hs746T = experiment: 5-day viability assay; format: cell-based; settings: Homo sapiens, 120 h, Hs746T (gastric, AMP, Exon 14), two independent experiments
SNU-5 = experiment: 5-day viability assay; format: cell-based; settings: Homo sapiens, 120 h, SNU-5 (gastric, MET AMP), two independent experiments
COLO-205 = experiment: 5-day CellTiter-Glo viability sensitivity screen; format: cell-based; settings: Homo sapiens, 120 h; COLO-205 colorectal; 5-day viability assays; read-out: IC50 (sensitive/resistant cut-off)
SW1116 = experiment: 5-day CellTiter-Glo viability sensitivity screen; format: cell-based; settings: Homo sapiens, SW 1116, 120 h; SW1116 colorectal (KRAS p.G12A); 5-day viability assays; read-out: IC50 (sensitive/resistant cut-off)
HCT116 = experiment: 5-day CellTiter-Glo viability sensitivity screen; format: cell-based; settings: Homo sapiens, HCT-116, 120 h; HCT116 colorectal (KRAS p.G13D); 5-day viability assays; read-out: IC50 (sensitive/resistant cut-off)
SW620 = experiment: 5-day CellTiter-Glo viability sensitivity screen; format: cell-based; settings: Homo sapiens, SW-620, 120 h; SW620 colorectal (KRAS p.G12V); 5-day viability assays; read-out: IC50 (sensitive/resistant cut-off)
SW480 = experiment: 5-day CellTiter-Glo viability sensitivity screen; format: cell-based; settings: Homo sapiens, 120 h; SW480 colorectal (KRAS p.G12V); 5-day viability assays; read-out: IC50 (sensitive/resistant cut-off)
DLD1 = experiment: 5-day CellTiter-Glo viability sensitivity screen; format: cell-based; settings: Homo sapiens, DLD-1, 120 h; DLD1 colorectal (KRAS p.G13D); 5-day viability assays; read-out: IC50 (sensitive/resistant cut-off)
MDST8 = experiment: 5-day CellTiter-Glo viability sensitivity screen; format: cell-based; settings: 120 h; MDST8 colorectal; 5-day viability assays; read-out: IC50 (sensitive/resistant cut-off)
SW1417 = experiment: 5-day CellTiter-Glo viability sensitivity screen; format: cell-based; settings: Homo sapiens, 120 h; SW1417 colorectal; 5-day viability assays; read-out: IC50 (sensitive/resistant cut-off)
COLO-741 = experiment: 5-day CellTiter-Glo viability sensitivity screen; format: cell-based; settings: Homo sapiens, 120 h; COLO-741 colorectal; 5-day viability assays; read-out: IC50 (sensitive/resistant cut-off)
[1] = tested on: colorectal cancer cell lines; experiment: Sensitivity screen, share of sensitive cell lines; format: cell-based; settings: nine out of 14 cell lines; 5-day CellTiter-Glo viability
[2] = tested on: cell lines harboring MET pathway activation; experiment: 5-day viability assay, share of sensitive cell lines; format: cell-based; settings: 6/10 cell lines
NCI-H1944 = experiment: CellTiter-Glo cell viability, single agent and combination (Chou-Talalay CI); settings: Homo sapiens, NCI-H1944, 120 h, read-out: IC50 (single agent)
Method: as §5, §2

NCI-H2030 = experiment: as above; settings: Homo sapiens, NCI-H2030, 120 h, read-out: IC50 (single agent)
Method: as §5, §2

NCI-H2122 = experiment: as above; settings: Homo sapiens, NCI-H2122, 120 h, read-out: IC50 (single agent)
Method: as §5, §2

A427 = experiment: as above; settings: Homo sapiens, A-427, 120 h, read-out: IC50 (single agent)
Method: as §5, §2

[3] = read-out: IC50 (single agent), EBC-1, 120 h, average of two independent experiments
[4] = read-out: IC50 (single agent), MKN45, 120 h, average of two independent experiments
[5] = read-out: Viability (normalized)

SMILES: O=C(c1ccc(F)c(F)c1Nc1ccc(I)cc1F)N1CC(O)([C@@H]2CCCCN2)C1 [Cobimetinib, cobimetinib]
- pIC50 (GP5d): < 5.30
- pIC50 (EBC-1; [3]): 6.87
- pIC50 (MKN45; [4]): 6.71
- pIC50 (Caki-1; read-out: IC50 (single agent)): < 5.30
- pIC50 (A549): 6.39

SMILES: Cn1cnc2c(F)c(Nc3ccc(Br)cc3Cl)c(C(=O)NOCCO)cc21 [Selumetinib, selumetinib]
- pIC50 (LS411N; Homo sapiens, LS-411N): 7.34
- pIC50 (EBC-1; [3]): 6.80
- pIC50 (MKN45; [4]): 5.96
- pIC50 (RKO cells): 5.46
- viability at 0.078 µM (RKO cells; [5]): 78%
- viability at 0.125 µM (RKO cells; [5]): 78%
- viability at 0.313 µM (RKO cells; [5]): 71%
- viability at 0.625 µM (RKO cells; [5]): 74%
- viability at 1.25 µM (RKO cells; [5]): 64%
- viability at 2.5 µM (RKO cells; [5]): 53%
- viability at 5 µM (RKO cells; [5]): 46%
- viability at 100 µM (RKO cells; [5]): 32%

SMILES: CC(C)Nc1cc(-c2c[nH]c(C(=O)N[C@H](CO)c3cccc(Cl)c3)c2)c(Cl)cn1 [BVD-523]
- pIC50 (EBC-1; [3]): 6.06
- pIC50 (MKN45; [4]): 6.36
- pIC50 (RKO cells): 6.02

SMILES: Cn1nccc1Nc1nccc(-c2ccn([C@H](CO)c3ccc(Cl)c(F)c3)c(=O)c2)n1 [GDC-0994]
- pIC50 (EBC-1; [3]): 5.38
- pIC50 (MKN45; [4]): 5.27

SMILES: CCCS(=O)(=O)Nc1ccc(F)c(C(=O)c2c[nH]c3ncc(-c4ccc(Cl)cc4)cc23)c1F [Vemurafenib, vemurafenib]
- pIC50 (LS411N; Homo sapiens, LS-411N): 6.46
- pIC50 (HCT-15): < 5.00
- pIC50 (HT-29): 5.61
- pIC50 (RKO cells): 5.15

SMILES: Cc1cccc(/C=N/Nc2cc(N3CCOCC3)n3nc(-c4ccncc4)cc3n2)c1 [APY-0201]
- pIC50 (EBC-1; [3]): 6.77
- pIC50 (MKN45; [4]): 6.57

SMILES: Cc1cccc(/C=N/Nc2cc(N3CCOCC3)nc(OCCc3ccccn3)n2)c1 [apilimod]
- pIC50 (GP5d): 6.68
- pIC50 (LS411N): 7.05
- pIC50 (BxPC3): < 6.40
- pIC50 (NCI-H820): 6.99
- pIC50 (SBC-5): 6.97
- pIC50 (NCI-H596): 6.52
- pIC50 (NCI-H1993): 6.06
- pIC50 (NCI-H2023): 7.14
- pIC50 (Hs746T): 6.97
- pIC50 (SNU-5): 6.06
- pIC50 (COLO-205): > 6.70
- pIC50 (SW1116): > 6.70
- pIC50 (HCT116): > 6.70
- pIC50 (SW620): > 6.70
- pIC50 (SW480): > 6.70
- pIC50 (DLD1): > 6.70
- pIC50 (MDST8): < 6.70
- pIC50 (SW1417): < 6.70
- pIC50 (COLO-741): < 6.70
- colorectal cancer cell lines sensitive to apilimod (average IC50 less than 200 nM) [1]: 64%
- cell lines harboring MET pathway activation sensitive to apilimod (IC50 less than 200 nM) [2]: 60%
- pIC50 (EBC-1; read-out: Average IC50, EBC-1 (NSCLC, MET AMP), 5-day viability assay, two independent experiments): 6.95
- pIC50 (MKN45; read-out: Average IC50, MKN45 (gastric, MET AMP), 5-day viability assay, two independent experiments): 6.72
- pIC50 (Caki-1; read-out: Average IC50): 6.43
- pIC50 (A549): 7.31
- pIC50 (NCI-H1944): 7.44
- pIC50 (NCI-H2030): 6.64
- pIC50 (NCI-H1792): < 6.40
- pIC50 (NCI-H2122): < 6.40
- pIC50 (A427): 7.10
- pIC50 (RKO cells): < 6.70
- viability at 0.023 µM (RKO cells; [5]): 98%
- viability at 0.035 µM (RKO cells; [5]): 93%
- viability at 0.053 µM (RKO cells; [5]): 96%
- viability at 0.079 µM (RKO cells; [5]): 93%
- viability at 0.119 µM (RKO cells; [5]): 97%
- viability at 0.178 µM (RKO cells; [5]): 70%
- viability at 0.267 µM (RKO cells; [5]): 53%
- viability at 0.4 µM (RKO cells; [5]): 44%
- pIC50 (A375): 6.98

SMILES: CNC(=O)c1cc(Oc2ccc(NC(=O)Nc3ccc(Cl)c(C(F)(F)F)c3)c(F)c2)ccn1 [Regorafenib, regorafenib]
- pIC50 (HCT-15): 5.15
- pIC50 (HT-29): 5.19
- pIC50 (Caki-1; read-out: IC50 (single agent)): 5.23
- pIC50 (A549): 5.20
- pIC50 (RKO cells): 5.31

SMILES: Cn1cnc2c(F)c(Nc3ccc(Br)cc3F)c(C(=O)NOCCO)cc21 [Binimetinib, binimetinib]
- pIC50 (GP5d): < 5.30
- pIC50 (EBC-1; [3]): 7.12
- pIC50 (MKN45; [4]): 6.27

Continued, in another order:

- pIC50 (MKN45; [4]): 7.17
SMILES: COc1cc2nccc(Oc3ccc(NC(=O)C4(C(=O)Nc5ccc(F)cc5)CC4)cc3)c2cc1OC [Cabozantinib, cabozantinib]
- pIC50 (EBC-1; [3]): 7.55

- pIC50 (HT-29): 8.52
- pIC50 (MKN45; [4]): 7.74
- pIC50 (A549): 7.77
- pIC50 (NCI-H1792): 7.48
- pIC50 (A375): 8.70
SMILES: CC(=O)Nc1cccc(-n2c(=O)n(C3CC3)c(=O)c3c(Nc4ccc(I)cc4F)n(C)c(=O)c(C)c32)c1 [Trametinib, trametinib]
- pIC50 (GP5d): < 5.30
- pIC50 (LS411N; Homo sapiens, LS-411N): 9.00
- pIC50 (EBC-1; [3]): 8.00
- pIC50 (Caki-1; read-out: IC50 (single agent)): 7.33
- pIC50 (RKO cells): 7.49

- pIC50 (MKN45; [4]): 8.52
SMILES: C[C@@H](c1ccc2nccn2c1)n1nnc2ncc(-c3cnn(C)c3)nc21 [Savolitinib, savolitinib]
- pIC50 (EBC-1; [3]): 8.82

- pIC50 (MKN45; [4]): 8.82
SMILES: CNC(=O)c1ccc(-c2cnc3ncc(Cc4ccc5ncccc5c4)n3n2)cc1F [Capmatinib, capmatinib]
- pIC50 (EBC-1; [3]): 9.15

- pIC50 (MKN45; [4]): 7.89
SMILES: C[C@@H](Oc1cc(-c2cnn(C3CCNCC3)c2)cnc1N)c1c(Cl)ccc(F)c1Cl [Crizotinib, crizotinib]
- pIC50 (EBC-1; [3]): 8.00

- pIC50 (MKN45; [4]): 7.80
SMILES: CN1CCC(COc2cnc(-c3cccc(Cn4nc(-c5cccc(C#N)c5)ccc4=O)c3)nc2)CC1 [Tepotinib, tepotinib]
- pIC50 (EBC-1; [3]): 7.89

- pIC50 (MKN45; [4]): 8.15
SMILES: COCCOc1cnc2ccn([C@H](C)c3nnc4c(F)cc(-c5cnn(C)c5)cn34)c(=O)c2c1 [AMG 337]
- pIC50 (EBC-1; [3]): 8.40
